The values below come from US20250297233A1, “GENETICALLY ENCODED SYSTEMS FOR GENERATING OXYGEN IN LIVING EUKARYOTIC CELLS” (The General Hospital Corporation, priority 2022, published 2025).

Experiment [1] relates to HeLa cells. The experiment can be described thus: Seahorse oxygen and oxygen consumption rate measurement in intact cells. The experiment is classed as cell-based, human. The conditions noted are these: 1% ambient oxygen.
Another experiment has as its system yeast. The conditions noted are these: read-out: dose required to achieve 50% growth inhibition; yeast (Kwolek-Mirek 2011); cited from earlier work.
Experiment [2] relates to NdCld. As to conditions: purified bacterial expressed NdCld (Kostan 2010; Hofbauer 2014); cited from earlier work.
The subject of experiment [3] is NdCld. The conditions noted are these: human digitonin-permeabilized HeLa cell extract expressing NdCld, initial rates of oxygen evolution. The procedure: HeLa cells were pelleted at 800×g for 3 min, washed with PBS, pelleted again, and then resuspended in assay buffer (125 mM KCl, 2 mM K2HPO4, 1 mM MgCl2, 2 0 mM HEPES pH 7.2, 5 mM glutamate, 5 mM malate, and 0.01% digitonin) at a concentration of 5×10^6 cells/ml. Oxygen production was measured using a FireSting optical oxygen meter connected to a sensor vial. One ml of cell solution (5×10^6 cells) was used for each measurement. Measurements were performed under ambient air conditions with stirring of the cell solution. […] The initial rates were determined from the resulting oxygen traces using up to 20 seconds of the linear portion of the trace via the ICEKAT web server (Olp, 2020). The means of 3 replicate rates were plotted against the chlorite concentrations to estimate the KM.
We next characterized the activity of this protein in human cell extracts. […] Doses spanning 10 uM to 1 mM were used, as previous studies have shown that higher chlorite concentrations lead to inactivation of the enzyme (Hofbauer 2014). We monitored oxygen evolution using an optical probe in a well-stirred, air saturated cuvette.

Experiment [4] deals with HeLa cells. The conditions noted are these: read-out: concentration giving 50% decrease in viability; HeLa cells (GFP), treated for 3 days, FIG. 3A.
Protocol: Cell counts and viability were assessed after 3 days of growth using a Vi-Cell BLU Cell Viability Analyzer. Shown is the mean+/−s.d. of triplicate measurements.
HeLa cells were trypsinized, counted, and prepared at 10^5 cells/ml in normal growth media. […] Cells were seeded in 24-well plates, with triplicate wells for each condition. 500 ul of each 2× chlorite/media preparation was first added to the plate. 500 ul of cell suspension (5×10^4 cells) was then added to each well. The plate was gently mixed, and cells were grown for 3 days in a 37° C./5% CO2 incubator. After 3 days, cells were washed briefly with 500 ul of PBS, trypsinized with 250 ul TrypLE Express, and resuspended with 750 ul of normal growth media to 1 ml total volume. In wells containing a majority of visibly dead, floating cells, cells were resuspended by vigorously pipetting up and down rather than by trypsinization. 200 ul of each cell suspension was then quantified using a Vi-Cell BLU Cell Viability Analyzer (Beckman Coulter).
For experiment [5], the system named is NdCld. As to conditions: NdCld in E. coli extracts (Maixner 2008); cited from earlier work.
For experiment [6], the target named is sodium iodide symporter (NIS) (Rattus norvegicus, UniProt Q63008). The conditions noted are these: read-out: Km of NIS transport; Xenopus oocytes (Eskandari 1997); cited from earlier work.

As usually defined, the Km is the substrate concentration at which the rate is half of its maximum.

Read-outs that look alike come from different tables or passages of the source.

Chain of NdCld (as listed by the source): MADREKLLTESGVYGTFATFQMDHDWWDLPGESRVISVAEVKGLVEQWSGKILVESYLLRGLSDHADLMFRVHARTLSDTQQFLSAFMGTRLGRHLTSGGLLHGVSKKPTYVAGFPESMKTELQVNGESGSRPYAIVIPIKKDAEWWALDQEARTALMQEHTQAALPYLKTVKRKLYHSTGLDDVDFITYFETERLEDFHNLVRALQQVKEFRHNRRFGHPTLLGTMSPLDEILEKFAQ
Chain of sodium iodide symporter (NIS) (Q63008 whole entry): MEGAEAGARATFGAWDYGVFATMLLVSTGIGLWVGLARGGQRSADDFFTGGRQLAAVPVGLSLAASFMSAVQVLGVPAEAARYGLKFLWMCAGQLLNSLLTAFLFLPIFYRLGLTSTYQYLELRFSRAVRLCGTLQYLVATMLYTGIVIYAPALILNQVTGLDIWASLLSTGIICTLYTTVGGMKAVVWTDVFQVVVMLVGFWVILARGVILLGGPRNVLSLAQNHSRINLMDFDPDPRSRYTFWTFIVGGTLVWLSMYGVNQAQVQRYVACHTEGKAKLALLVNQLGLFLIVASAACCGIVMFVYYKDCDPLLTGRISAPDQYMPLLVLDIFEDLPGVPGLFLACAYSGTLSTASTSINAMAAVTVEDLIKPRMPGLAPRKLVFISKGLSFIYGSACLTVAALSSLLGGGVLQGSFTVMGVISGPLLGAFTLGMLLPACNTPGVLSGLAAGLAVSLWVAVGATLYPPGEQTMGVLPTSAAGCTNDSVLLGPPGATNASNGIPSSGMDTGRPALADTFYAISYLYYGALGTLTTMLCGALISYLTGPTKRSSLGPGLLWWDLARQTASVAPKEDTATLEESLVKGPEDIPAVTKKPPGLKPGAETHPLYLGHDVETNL

For sodium chlorite, the “oxygen generation (decline in apparent OCR)” value in the experiment with HeLa cells [1] (HeLa cells co-expressing NdCld and NIS, piericidin+antimycin, dose response beginning with 1 mM chlorite) is on record as “robust oxygen production”. The “oxygen evolution in intact cells” value in the experiment with HeLa cells [1] (HeLa cells expressing FLAG-NdCld+NIS (not mCherry), 500 uM or 1 mM chlorite) is given as “observed oxygen evolution”. Further, the IC50 was 4 mM in the experiment on yeast and about 2 mM in the experiment with HeLa cells [4]. The Km with NdCld [2] is 58 to 69 µM; with NdCld [3] (read-out: Km for chlorite), 560 µM; with NdCld [5] it was 15800 µM. Besides, the Vmax in the experiment with NdCld [3] was 0.37 umoles/second/100,000 cells.
Take `[O-][Cl+2]([O-])O` [chlorate]: in experiment [6], the Km was 277 µM.
